According to patent US10918683B2, “Methods to reduce fat accumulation and oxidative damage in liver using green mango extracts and compounds obtained therefrom” (TCI CO., LTD., priority 2018, dated 2021):

Test system: HepG2 cells
Test: Oil red O staining of fat accumulation in oleic acid-treated HepG2 cells
Format: cell-based, human
Conditions: 10 μg/mL compound (dissolved in DMSO)
Procedure: HepG2 cells were cultured at 37° C. under 5% carbon dioxide in DMEM supplemented with 10% FBS and 1% penicillin/streptomycin, hereinafter referred to as DMEM culture medium.
To prepare the oil red O staining solution, the dye, oil red O, was first dissolved in 100% isopropanol thoroughly to prepare a 30 mg/mL oil red O stock solution. To obtain a ready-to-use oil red O staining solution, the stock solution was diluted with double deionized water to a concentration of 18 mg/mL and filtered through a 0.22 μm filter immediately before use.
To obtain a DMEM containing oleic acid-BSA conjugate, 10 mg/mL BSA and 28 μg/mL oleic acid were added to a DMEM with 2% FBS and 1% penicillin/streptomycin. The resulting mixture was stirred for about 30 minutes to facilitate the conjugation between oleic acid and BSA and the formation of conjugates.
The neutral fat content of cells was determined by oil red O staining. Prior to staining, the cells after indicated treatment were washed with PBS and then fixed with 10% formaldehyde for 30 minutes. The fixed cells were washed once with PBS and rinsed with 50% isopropanol for 15 seconds. Thereafter, the cells were stained with the oil red O staining solution for 1 hour. […] Alternatively, the intracellular dye was dissolved with 100% isopropanol and quantified by spectrophotometry. […]

## O=C(OCC1OC(OC(=O)c2cc(O)c(O)c(O)c2)C(OC(=O)c2cc(O)c(O)c(O)c2)C(OC(=O)c2cc(O)c(O)c(O)c2)C1OC(=O)c1cc(O)c(O)c(O)c1)c1ccc(O)cc1 (centres unmarked) [formula (Ia)]
  reduction of fat accumulation in HepG2 cells compared with oleic acid alone: approximately 33%

## O=C(OCC1OC(OC(=O)c2cc(O)c(O)c(O)c2)C(OC(=O)c2cc(O)c(O)c(O)c2)C(OC(=O)c2cc(O)c(O)c(O)c2)C1OC(=O)c1cc(O)c(O)c(O)c1)c1cc(O)c(O)c(O)c1 (centres unmarked) [formula (Ib), 1,2,3,4,6-penta-O-galloyl-glucopyranoside]
  reduction of fat accumulation in HepG2 cells compared with oleic acid alone: ~44%
